Test results taken from PubChem BioAssay (NCI).
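Five concentrations, 48 hours, 96-well plates. TGI: total growth inhibition.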

Tests used:
Assay in all cases: NCI anticancer screen, dose series, 48 h
SNB-75 CNS = test system: SNB-75 CNS
786-0 renal = test system: 786-0 renal
HCT-15 colon = test system: HCT-15 colon
PC-3 prostate = test system: PC-3 prostate
HOP-62 NSCLC = test system: HOP-62 NSCLC
OVCAR-3 ovarian = test system: OVCAR-3 ovarian
A498 renal = test system: A498 renal
T-47D breast = test system: T-47D breast
LOX IMVI melanoma = test system: LOX IMVI melanoma
RXF 393 renal = test system: RXF 393 renal
OVCAR-5 ovarian = test system: OVCAR-5 ovarian
UO-31 renal = test system: UO-31 renal
SF-268 CNS = test system: SF-268 CNS
U251 CNS = test system: U251 CNS
COLO 205 colon = test system: COLO 205 colon
UACC-62 melanoma = test system: UACC-62 melanoma
K-562 leukemia = test system: K-562 leukemia
MCF7 breast = test system: MCF7 breast
HT29 colon = test system: HT29 colon
SNB-19 CNS = test system: SNB-19 CNS
NCI-H23 lung = test system: NCI-H23 lung
UACC-257 melanoma = test system: UACC-257 melanoma
DU-145 prostate = test system: DU-145 prostate
NCI-H522 lung = test system: NCI-H522 lung
HL-60(TB) leukemia = test system: HL-60(TB) leukemia
SK-OV-3 ovarian = test system: SK-OV-3 ovarian
SF-295 CNS = test system: SF-295 CNS
OVCAR-8 ovarian = test system: OVCAR-8 ovarian
SK-MEL-2 melanoma = test system: SK-MEL-2 melanoma
MDA-N = test system: MDA-N
SW-620 colon = test system: SW-620 colon
MDA-MB-231 breast = test system: MDA-MB-231 breast
BT-549 breast = test system: BT-549 breast
NCI-H226 lung = test system: NCI-H226 lung
M14 melanoma = test system: M14 melanoma
MDA-MB-435 = test system: MDA-MB-435
SF-539 CNS = test system: SF-539 CNS
MALME-3M melanoma = test system: MALME-3M melanoma
CAKI-1 renal = test system: CAKI-1 renal
OVCAR-4 ovarian = test system: OVCAR-4 ovarian
SK-MEL-28 melanoma = test system: SK-MEL-28 melanoma
NCI/ADR-RES ovarian = test system: NCI/ADR-RES ovarian
KM12 colon = test system: KM12 colon
IGROV1 ovarian = test system: IGROV1 ovarian
TK-10 renal = test system: TK-10 renal
A549 NSCLC = test system: A549 NSCLC
HCC-2998 colon = test system: HCC-2998 colon
NCI-H460 lung = test system: NCI-H460 lung
HCT-116 colon = test system: HCT-116 colon
SK-MEL-5 melanoma = test system: SK-MEL-5 melanoma
EKVX NSCLC = test system: EKVX NSCLC
ACHN renal = test system: ACHN renal
CCRF-CEM leukemia = test system: CCRF-CEM leukemia
HS 578T breast = test system: HS 578T breast
RPMI-8226 leukemia = test system: RPMI-8226 leukemia
MOLT-4 leukemia = test system: MOLT-4 leukemia
SR leukemia = test system: SR leukemia
SN12C renal = test system: SN12C renal
HOP-92 NSCLC = test system: HOP-92 NSCLC

O=C(N/N=C/c1ccccc1O)c1ccccc1Nc1ccccc1C(=O)N/N=C/c1ccccc1O
TGI (SNB-75 CNS): > 100 µM
TGI (786-0 renal): > 24.2 µM
TGI (HCT-15 colon): > 100 µM
TGI (PC-3 prostate): > 100 µM
TGI (HOP-62 NSCLC): > 20.7 µM
TGI (OVCAR-3 ovarian): > 100 µM
TGI (A498 renal): > 100 µM
TGI (T-47D breast): > 100 µM
TGI (LOX IMVI melanoma): > 100 µM
TGI (RXF 393 renal): > 100 µM
TGI (OVCAR-5 ovarian): > 100 µM
TGI (UO-31 renal): > 100 µM
TGI (SF-268 CNS): 2.28 µM
TGI (U251 CNS): > 100 µM
TGI (COLO 205 colon): > 100 µM
TGI (UACC-62 melanoma): > 100 µM
TGI (K-562 leukemia): > 100 µM
TGI (MCF7 breast): > 100 µM
TGI (HT29 colon): 4.99 µM
TGI (SNB-19 CNS): > 100 µM
TGI (NCI-H23 lung): > 100 µM
TGI (UACC-257 melanoma): > 100 µM
TGI (DU-145 prostate): > 100 µM
TGI (NCI-H522 lung): > 100 µM
TGI (HL-60(TB) leukemia): > 100 µM
TGI (SK-OV-3 ovarian): > 100 µM
TGI (SF-295 CNS): > 100 µM
TGI (OVCAR-8 ovarian): 11.7 µM
TGI (SK-MEL-2 melanoma): > 100 µM
TGI (MDA-N): > 100 µM
TGI (SW-620 colon): > 100 µM
TGI (MDA-MB-231 breast): > 100 µM
TGI (BT-549 breast): > 100 µM
TGI (NCI-H226 lung): 3.79 µM
TGI (M14 melanoma): 6.35 µM
TGI (MDA-MB-435): > 30.7 µM
TGI (SF-539 CNS): > 100 µM
TGI (MALME-3M melanoma): 6.09 µM
TGI (CAKI-1 renal): > 100 µM
TGI (OVCAR-4 ovarian): > 100 µM
TGI (SK-MEL-28 melanoma): 0.865 µM
TGI (NCI/ADR-RES ovarian): 5.44 µM
TGI (KM12 colon): > 100 µM
TGI (IGROV1 ovarian): > 100 µM
TGI (TK-10 renal): > 100 µM
TGI (A549 NSCLC): > 100 µM
TGI (HCC-2998 colon): > 100 µM
TGI (NCI-H460 lung): > 100 µM
TGI (HCT-116 colon): 3.5 µM
TGI (SK-MEL-5 melanoma): 8.15 µM
TGI (EKVX NSCLC): > 100 µM
TGI (ACHN renal): > 100 µM
TGI (CCRF-CEM leukemia): > 100 µM

Nc1c(N2CCOCC2)c(=O)nc2[nH]/c(=C\c3ccccc3)c(=O)n12
TGI (HS 578T breast): > 100 µM
TGI (SNB-75 CNS): > 100 µM
TGI (786-0 renal): > 100 µM
TGI (HCT-15 colon): > 100 µM
TGI (A498 renal): > 100 µM
TGI (T-47D breast): > 100 µM
TGI (LOX IMVI melanoma): > 100 µM
TGI (RXF 393 renal): > 100 µM
TGI (OVCAR-5 ovarian): > 100 µM
TGI (UO-31 renal): > 100 µM
TGI (RPMI-8226 leukemia): > 100 µM
TGI (SF-268 CNS): > 100 µM
TGI (U251 CNS): > 100 µM
TGI (COLO 205 colon): > 100 µM
TGI (MOLT-4 leukemia): > 100 µM
TGI (SR leukemia): > 100 µM
TGI (K-562 leukemia): 93 µM
TGI (MCF7 breast): > 100 µM
TGI (HT29 colon): > 100 µM
TGI (SNB-19 CNS): > 100 µM
TGI (NCI-H23 lung): > 100 µM
TGI (UACC-257 melanoma): > 100 µM
TGI (DU-145 prostate): > 100 µM
TGI (NCI-H522 lung): > 100 µM
TGI (HL-60(TB) leukemia): 57.3 µM
TGI (SK-OV-3 ovarian): > 100 µM
TGI (SF-295 CNS): > 100 µM
TGI (OVCAR-8 ovarian): > 100 µM
TGI (MDA-N): > 100 µM
TGI (SW-620 colon): > 100 µM
TGI (MDA-MB-231 breast): > 100 µM
TGI (NCI-H226 lung): > 100 µM
TGI (M14 melanoma): > 100 µM
TGI (MDA-MB-435): > 100 µM
TGI (SF-539 CNS): > 100 µM
TGI (MALME-3M melanoma): > 100 µM
TGI (CAKI-1 renal): > 100 µM
TGI (OVCAR-4 ovarian): > 100 µM
TGI (SK-MEL-28 melanoma): > 100 µM
TGI (NCI/ADR-RES ovarian): > 100 µM
TGI (KM12 colon): > 100 µM
TGI (IGROV1 ovarian): > 100 µM
TGI (TK-10 renal): > 100 µM
TGI (A549 NSCLC): > 100 µM
TGI (HCC-2998 colon): > 100 µM
TGI (NCI-H460 lung): > 100 µM
TGI (HCT-116 colon): > 100 µM
TGI (SK-MEL-5 melanoma): > 100 µM
TGI (EKVX NSCLC): > 100 µM
TGI (ACHN renal): > 100 µM
TGI (SN12C renal): > 100 µM
TGI (HOP-92 NSCLC): > 100 µM
TGI (CCRF-CEM leukemia): > 100 µM
